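A five-concentration, 48-hour dose response in 96-well plates underlies each endpoint, interpolated linearly between surrounding concentrations. At the GI50, growth is halved. At the TGI there is no net growth.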
Assays:
Experiment in all cases: growth of human tumour cells (NCI), 48 h
CAKI-1 renal = test system: CAKI-1 renal
CCRF-CEM leukemia = test system: CCRF-CEM leukemia
HCT-116 colon = test system: HCT-116 colon
HL-60(TB) leukemia = test system: HL-60(TB) leukemia
MCF7 breast = test system: MCF7 breast
MOLT-4 leukemia = test system: MOLT-4 leukemia
NCI-H460 lung = test system: NCI-H460 lung
OVCAR-8 ovarian = test system: OVCAR-8 ovarian
SF-295 CNS = test system: SF-295 CNS
SNB-19 CNS = test system: SNB-19 CNS
LOX IMVI melanoma = test system: LOX IMVI melanoma

Compound	TGI (CAKI-1 renal) [µM]	TGI (CCRF-CEM leukemia) [µM]	TGI (HCT-116 colon) [µM]	TGI (HL-60(TB) leukemia) [µM]	TGI (MCF7 breast) [µM]	TGI (MOLT-4 leukemia) [µM]	TGI (NCI-H460 lung) [µM]	TGI (OVCAR-8 ovarian) [µM]	TGI (SF-295 CNS) [µM]	TGI (SNB-19 CNS) [µM]	TGI (LOX IMVI melanoma) [µM]	GI50 (CCRF-CEM leukemia) [µM]	GI50 (HL-60(TB) leukemia) [µM]	GI50 (LOX IMVI melanoma) [µM]	GI50 (MCF7 breast) [µM]	GI50 (MOLT-4 leukemia) [µM]	GI50 (NCI-H460 lung) [µM]	GI50 (OVCAR-8 ovarian) [µM]	GI50 (SNB-19 CNS) [µM]
O=C(/C=C/c1cccs1)c1ccc(Cl)s1	> 100	59.5	32.2	64.1	> 100	52.3	> 100	> 100	> 100	47.6	–	–	–	–	–	–	–	–	–
N#Cc1c(-c2ccccc2)c(C#N)c(=S)n(C2OCC(O)C(O)C2O)c1N (configuration not stated)	> 100	> 100	–	> 100	> 100	> 100	> 100	> 100	> 100	> 100	> 100	–	–	–	–	–	–	–	–
Cc1n(CC(C)C)c2c([n+]1CC(=O)c1ccc([N+](=O)[O-])cc1)C(=O)c1ccccc1C2=O	1.13	4.94	–	< 0.01	< 0.01	0.0742	1.38	0.476	1.51	0.104	0.131	–	–	–	–	–	–	–	–
CCN(CC)CCNc1ccc2ncn3c4c(OC)ccc(=O)c4c(O)c1c23	> 100	> 100	> 44.3	> 100	> 70.7	> 24.6	> 100	> 100	> 100	> 100	–	–	–	–	–	–	–	–	–
Oc1c2c(c3c4c1N=CC=4CCN=3)C1(C=C(Br)C(O)C(Br)=C1)CCN2 (configuration not stated)	29.3	5.79	1.9	2.08	2.73	–	8.47	2.91	7.74	> 34.8	3.09	–	–	–	–	–	–	–	–
CCCCC1=CC1(C#N)[N+](=O)[O-] (configuration not stated)	> 100	63.6	> 100	–	> 100	67.5	> 100	> 100	> 100	> 100	> 100	–	–	–	–	–	–	–	–
CC(=O)OC(C#N)CC(C)(C)/[N+]([O-])=[N+](\[O-])C(C)(C)CC(C#N)OC(C)=O (configuration not stated)	30.7	> 100	20.9	–	> 100	26.3	35	73.3	80.8	67.6	28.8	–	–	–	–	–	–	–	–
COC(=O)C1CCC[C@H]2C(CO)=C(C)C(=O)[C@@H]12 (some centres not stated)	> 100	> 100	> 100	> 100	–	> 100	> 100	> 100	> 100	> 100	–	–	–	–	–	–	–	–	–
C[N+]1(CCCC[N+]2(C)CCCCCCC2)CCCCCCC1	> 100	> 100	> 100	> 100	–	> 100	> 100	> 100	> 100	> 100	> 100	–	–	–	–	–	–	–	–
COc1cc(/C=C2/C(=O)N=C(NC(C)=O)N2C)ccc1OC(C)=O	> 100	–	> 100	> 100	> 100	> 100	> 100	> 100	> 100	> 100	> 100	–	–	–	–	–	–	–	–
c1ccc(C2=NN[C@H](c3cn(-c4ccccc4)nc3-c3ccccc3)C2)cc1	–	> 100	–	> 100	> 100	> 100	> 100	> 100	–	> 100	> 100	> 100	> 100	3.33	> 100	> 100	4.26	3.64	5.05
CCCCCCCSCC1OC(n2cnc3c(N)ncnc32)C(O)C1O (configuration not stated)	19.5	> 100	11.4	27.3	–	62.4	42.1	54.1	> 100	> 100	> 100	–	–	–	–	–	–	–	–
Clc1ccc2c(Cl)nc(-c3ccccc3)nc2c1	97.3	> 100	> 100	45.8	–	84.5	> 100	> 100	90.3	> 100	–	–	–	–	–	–	–	–	–
COC(=O)C(CCSc1ccccc1)C(=O)OC	> 100	> 100	> 100	> 100	> 100	> 100	> 100	> 100	> 100	–	–	–	–	–	–	–	–	–	–
COc1cc(O)c2c(c1O)C(=O)c1cc(C)ncc1C2=O	–	> 50	> 50	> 50	–	> 50	> 50	> 50	> 50	> 50	45.2	–	–	–	–	–	–	–	–
Cc1ccc(Nc2cc(=O)[nH]c(=O)[nH]2)cc1CS	> 100	> 100	> 100	–	–	> 100	> 100	> 100	> 100	> 100	> 100	–	–	–	–	–	–	–	–
COC(=O)C1=C(OC(=O)/C(=C/c2c(F)cccc2F)c2ccccc2)C(C(=O)OC)[C@@]2(O)[C@@H](C(=O)OC)[C@H](C)C[C@@H]1[C@@H]2C(=O)OC (some centres not stated)	> 100	> 100	> 100	> 100	–	> 100	> 100	> 100	> 100	> 100	> 100	–	–	–	–	–	–	–	–
CC1C(=O)CC[C@@]2(C)C(=O)CCCC12O (some centres not stated)	> 100	–	> 100	> 100	> 100	> 100	> 100	–	> 100	> 100	> 100	–	–	–	–	–	–	–	–
CN1CC(S(=O)(=O)c2ccccc2)CC(S(=O)(=O)c2ccccc2)C1c1ccccc1 (configuration not stated)	26	–	22.9	32.2	30	> 100	49.4	> 100	> 100	59.6	29.7	–	–	–	–	–	–	–	–
COC(=O)c1cn(CCCCO)nn1	> 100	> 100	> 100	–	> 100	> 100	> 100	> 100	> 100	> 100	> 100	–	–	–	–	–	–	–	–
O=C(Nc1ccc(N2C(=O)CSC2c2cccs2)cc1)c1ccc(N2C(=O)CSC2c2cccs2)cc1 (configuration not stated)	> 100	> 100	> 100	–	> 100	> 100	> 100	> 100	> 100	> 100	> 100	–	–	–	–	–	–	–	–
Nc1ccc(-c2nc3ccc(Cc4ccc5nc(-c6ccc(N)cc6)oc5c4)cc3o2)cc1	> 100	> 100	> 100	–	> 100	> 100	> 100	> 100	> 100	> 100	> 100	–	–	–	–	–	–	–	–

Compound	TGI (CAKI-1 renal) [µM]	TGI (CCRF-CEM leukemia) [µM]	TGI (HCT-116 colon) [µM]	TGI (HL-60(TB) leukemia) [µM]	TGI (MCF7 breast) [µM]	TGI (MOLT-4 leukemia) [µM]	TGI (NCI-H460 lung) [µM]	TGI (OVCAR-8 ovarian) [µM]	TGI (SF-295 CNS) [µM]	TGI (SNB-19 CNS) [µM]	TGI (LOX IMVI melanoma) [µM]	GI50 (CCRF-CEM leukemia) [µM]	GI50 (HL-60(TB) leukemia) [µM]	GI50 (LOX IMVI melanoma) [µM]	GI50 (MCF7 breast) [µM]	GI50 (MOLT-4 leukemia) [µM]	GI50 (NCI-H460 lung) [µM]	GI50 (OVCAR-8 ovarian) [µM]	GI50 (SNB-19 CNS) [µM]
COC(=O)CCSC1=CC(=O)c2nc3ccccc3c3ccnc1c23	42.5	> 26.6	42.2	> 24	> 50.2	50.4	41.3	> 56.3	> 100	> 100	–	–	–	–	–	–	–	–	–
Cc1ccc(S(=O)(=O)c2ccsc2NC(=O)c2ccccc2)cc1	97.4	–	> 100	–	> 100	> 100	> 100	98.5	> 100	> 100	> 100	–	–	–	–	–	–	–	–
O=C(Oc1ccc(OC(Oc2ccccc2)c2ccccc2)cc1)c1ccccc1 (configuration not stated)	–	> 31.6	29.2	> 31.6	> 31.6	> 31.6	> 100	> 31.6	25.8	> 31.6	> 31.6	–	–	–	–	–	–	–	–
CN(C)C(=O)C(F)(F)C(c1ccc(C(F)(F)F)cc1)C1C(=O)N(C)C(=O)N(C)C1=O (configuration not stated)	> 100	> 100	> 100	–	> 100	–	> 100	–	> 100	> 100	> 100	–	–	–	–	–	–	–	–
Nc1ccn(CC(CO)CC(c2ccccc2)P(=O)(O)O)c(=O)n1 (configuration not stated)	> 100	> 100	> 100	> 100	–	> 100	> 100	> 100	> 100	> 100	> 100	–	–	–	–	–	–	–	–
C=CCN1C[C@@H](C)N([C@@H](c2ccccc2)c2ccc(C(=O)N(CC)CC)cc2)C[C@@H]1C	> 100	–	> 100	> 100	> 100	> 100	–	> 100	> 100	> 100	–	–	–	–	–	–	–	–	–
Cc1cn(C2CC(N=[N+]=[N-])C(C(=O)O)O2)c(=O)[nH]c1=O (configuration not stated)	> 100	> 100	> 100	> 100	> 100	> 100	> 100	> 100	–	> 100	–	–	–	–	–	–	–	–	–
ClCCCC1COc2ccccc2O1 (configuration not stated)	> 100	> 100	> 100	> 100	> 100	> 100	> 100	> 100	> 100	> 100	–	–	–	–	–	–	–	–	–
COc1ccc(/C(Cl)=C(\CNc2ccccn2)c2ccccc2)cc1OC	> 100	> 100	> 100	> 100	–	> 100	> 100	> 100	> 100	> 100	> 100	–	–	–	–	–	–	–	–
O=C1CCCCCCCCCCC1CN(Cc1ccccc1)Cc1ccccc1 (configuration not stated)	–	50.2	55.9	76.4	68.1	62.5	–	> 100	> 100	> 100	69.4	–	–	–	–	–	–	–	–
COc1ccc(N2C(=O)C3c4[nH]c5cc(Cl)ccc5c4C4CCC(C(C)(C)C)CC4C3C2=O)cc1 (configuration not stated)	–	> 100	> 100	69.4	> 100	> 100	> 100	> 100	> 100	> 100	–	–	–	–	–	–	–	–	–
CCCCCCCCCCCCCCC[C@@H](O)C[N+](C)(C)CCO	4.1	11.5	> 62.1	0.36	33.6	> 24.5	5.01	30	10.1	3.81	–	–	–	–	–	–	–	–	–
O=C1c2ccccc2-n2c1nc1cc(Cl)ccc1c2=O	> 100	9.2	> 100	–	> 100	> 100	> 100	> 100	> 100	> 100	76.2	–	–	–	–	–	–	–	–
C=CCN(c1cc(OCc2ccccc2)c2c(c1)c(C)cn2S(=O)(=O)c1ccccc1)S(C)(=O)=O	> 100	> 100	> 100	> 100	–	> 100	> 100	> 100	> 100	> 100	> 100	–	–	–	–	–	–	–	–
N#Cc1nc(C2SCCCS2)oc1N	> 100	> 100	> 100	> 100	> 100	> 100	–	> 100	–	> 100	> 100	–	–	–	–	–	–	–	–
Cc1cccc2c(N)c3cccc(C(=O)NCCN4CCOCC4)c3nc12	17.3	–	24.9	1.2	> 32.1	1.71	14	–	10.9	3.12	4.28	–	–	–	–	–	–	–	–
COc1ccc2[nH]cc(CN3CCC(CO)(c4ccccc4)CC3)c2c1	–	75.1	35.8	48.5	37.9	56.9	> 100	> 100	39.8	> 100	37	–	–	–	–	–	–	–	–
CCCC(=O)[O-].CCCC(=O)[O-].N.N.N.N.[Co+3].[O-][Cl+3]([O-])([O-])[O-]	–	> 100	> 100	> 100	–	> 100	> 100	> 100	> 100	> 100	> 100	–	–	–	–	–	–	–	–
O=C(Nn1c(-c2ccccc2)nc2ccccc2c1=O)c1ccc(O)cc1	–	> 100	> 100	> 100	> 100	> 100	> 100	> 100	> 100	> 100	–	–	–	–	–	–	–	–	–
Cc1ccc(-c2n[nH]c(=O)n2N2C(=O)C=CC2=O)cc1	> 100	> 100	> 100	> 100	> 100	> 100	> 100	> 100	> 100	–	–	–	–	–	–	–	–	–	–
COC1CC(n2ccc(=O)[nH]c2=O)OC1CO (configuration not stated)	> 100	> 100	> 100	–	> 100	> 100	> 100	> 100	> 100	> 100	> 100	–	–	–	–	–	–	–	–
Nc1ccc(-c2nc3ccccc3s2)cc1I	> 100	> 46.4	–	> 100	> 100	> 46.4	> 100	> 100	> 100	> 100	> 100	–	–	–	–	–	–	–	–
